Source: ChEMBL document CHEMBL1201862, “PubChem BioAssay data set” (2004)
Activity calls are given as the source filed them.

Experiments:
[1] = molecular target: G-protein coupled receptor 55 (Homo sapiens, UniProt Q9Y2T6); test: inhibition of LPI-stimulated GPR55 beta-arrestin translocation – imaging, U2OS, beta-arrestin-GFP, LPI agonist, primary screen (AID 2013); assay type: functional;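 further: antagonist potency measured as reduced agonist-driven arrestin aggregation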
[2] = molecular target: DNA dC->dU-editing enzyme APOBEC-3A (Homo sapiens, UniProt P31941); test: Dose Response confirmation of small molecule APOBEC3A DNA Deaminase Inhibitors via a fluorescence-based single-stranded DNA deaminase assay. [Related pubchem assays (depositor defined):AID493011, AID493024]; assay type: functional
[3] = molecular target: DNA dC->dU-editing enzyme APOBEC-3G (Homo sapiens, UniProt Q9HC16); assay type: functional;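 further: Dose-response counterscreen measuring inhibition of APOBEC3G DNA deaminase activity, run while confirming APOBEC3A inhibitors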
[4] = molecular target: T1, Runt-related transcription factor 1/Core-binding factor subunit beta (Homo sapiens, UniProt Q01196+Q13951); test: disruptors of Runt domain/CBFb-SMMHC interaction – biochemical, FRET, Cerulean-Runt, Venus-CBFb-SMMHC, uHTS, […] (AID 1434); assay type: protein assay
[5] = molecular target: T1, Runt-related transcription factor 1/Core-binding factor subunit beta; test: Runt domain/CBFb-SMMHC interaction disruptors – biochemical, TR-FRET (AID 1438); assay type: protein assay
Genome polyprotein = Genome polyprotein (dengue virus type 2, UniProt P29990); test: flavivirus cap methylation enzyme inhibition – biochemical, confirmation dose response, primary screen (AID 588689); assay type: functional
CAAX prenyl protease 1 = CAAX prenyl protease 1 (Saccharomyces cerevisiae S288c, UniProt P47154); test: yeast CAAX protease Ste24 inhibition – biochemical, S. cerevisiae, plate reader, cherry-pick, dose response (AID 488815)
SUMO-activating enzyme = SUMO-activating enzyme (Homo sapiens, UniProt Q9UBT2); test: blockers of UBC9-mediated SUMO conjugation – biochemical, AlphaScreen, SUMOylation inhibitor project, confirmation (AID 2018); assay type: functional
[6] = viability of PTEN-deleted HCT116 cells – cell-based, HCT116 PTEN knockout, dose response (AID 1047); assay type: functional;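 further: HCT116 colon tumor cells with PTEN knocked out; cells exposed to compound for 60 hours before readout; potency for loss of cell viability measured by luminescence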
[7] = NIH-3T3 fibroblast cytotoxicity, dose response, cytotoxicity control, cell-based, fluorescence, Alamar Blue, secondary assay (AID 2327); assay type: functional;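 further: NIH-3T3 mouse fibroblasts cultured with fluconazole at 8 µg/mL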
Bcl-2-like protein 10 = molecular target: T2, Bcl-2-like protein 10 (Homo sapiens, UniProt Q9HD36); test: Bcl-B/TR3 peptide binding disruption – biochemical, fluorescence polarization, FITC-TR3 peptide, selectivity assay for Bfl-1 inhibitor project, primary screen (AID 748);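 further: fluorescence polarization from a fluorescein-labelled TR3 peptide binding purified Bcl-B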
T2 sequence (Q9HD36 whole entry): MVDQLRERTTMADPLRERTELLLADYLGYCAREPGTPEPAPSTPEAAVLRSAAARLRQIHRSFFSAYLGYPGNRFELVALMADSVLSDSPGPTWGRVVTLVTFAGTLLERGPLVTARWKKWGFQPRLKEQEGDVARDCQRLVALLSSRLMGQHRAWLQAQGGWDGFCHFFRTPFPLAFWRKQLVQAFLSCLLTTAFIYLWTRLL

[8] = fluconazole-exposed Candida albicans growth modulators – fluorescence, retest, confirmation (AID 2467); assay type: functional, cell-based
Estrogen receptor beta = Estrogen receptor beta (Homo sapiens, UniProt Q92731); test: blockers of SRC-3 recruitment to ERβ – biochemical, ELISA, streptavidin-HRP readout, orthogonal assay, confirmation (AID 1060)
[9] = molecular target: T3, Mannose-6-phosphate isomerase (Homo sapiens, UniProt P34949); test: MPI inhibition at elevated mannose 6-phosphate – biochemical, fluorescence intensity, high mannose 6-phosphate, primary screen (AID 1220)
T3 sequence (P34949 whole entry): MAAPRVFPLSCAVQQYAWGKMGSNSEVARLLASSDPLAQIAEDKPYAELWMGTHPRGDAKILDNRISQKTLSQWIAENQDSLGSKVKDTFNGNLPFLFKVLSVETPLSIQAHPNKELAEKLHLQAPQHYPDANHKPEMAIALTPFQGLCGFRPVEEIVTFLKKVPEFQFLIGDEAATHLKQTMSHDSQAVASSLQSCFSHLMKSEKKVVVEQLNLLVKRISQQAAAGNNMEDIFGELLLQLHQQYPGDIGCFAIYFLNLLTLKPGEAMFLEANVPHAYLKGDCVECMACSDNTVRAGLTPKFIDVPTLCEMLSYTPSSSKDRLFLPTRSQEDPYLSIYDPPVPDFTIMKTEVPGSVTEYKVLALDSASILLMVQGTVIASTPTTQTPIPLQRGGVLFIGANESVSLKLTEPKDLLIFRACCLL

[10] = molecular target: Alkaline phosphatase, placental type (Homo sapiens, UniProt P05187); test: human placental alkaline phosphatase inhibition – biochemical, luminescence, confirmation (AID 1512); assay type: functional
Leucine aminopeptidase = molecular target: T4, Leucine aminopeptidase (Plasmodium falciparum 3D7, UniProt Q8IL11); test: P. falciparum M17LAP inhibitors, primary screen, biochemical, fluorogenic H-Leu-NHMec substrate, 1536-well (AID 1619); assay type: functional
T4 sequence (Q8IL11 whole entry): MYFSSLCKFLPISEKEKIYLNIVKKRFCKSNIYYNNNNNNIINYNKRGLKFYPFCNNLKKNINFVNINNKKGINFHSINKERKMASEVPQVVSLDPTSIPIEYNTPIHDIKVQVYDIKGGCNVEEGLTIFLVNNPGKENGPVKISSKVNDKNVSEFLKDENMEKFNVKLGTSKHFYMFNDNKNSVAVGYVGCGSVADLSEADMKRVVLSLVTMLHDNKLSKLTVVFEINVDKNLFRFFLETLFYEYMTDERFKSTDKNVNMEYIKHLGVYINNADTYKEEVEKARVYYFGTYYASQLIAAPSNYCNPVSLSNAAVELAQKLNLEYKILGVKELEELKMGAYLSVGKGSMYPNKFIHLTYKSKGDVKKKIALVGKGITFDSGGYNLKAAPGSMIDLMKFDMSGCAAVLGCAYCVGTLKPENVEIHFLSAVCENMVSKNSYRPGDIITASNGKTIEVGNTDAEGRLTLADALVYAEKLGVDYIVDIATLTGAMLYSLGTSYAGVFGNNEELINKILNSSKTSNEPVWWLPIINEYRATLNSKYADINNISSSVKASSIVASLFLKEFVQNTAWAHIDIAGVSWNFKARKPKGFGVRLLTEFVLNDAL

[11] = Luminescence Cell-Based Dose Retest to Confirm Inhibitors of Cancer Stem Cells. [Related pubchem assays (depositor defined):AID2717, AID2721]; assay type: functional; conditions: Homo sapiens
[12] = molecular target: T5, Short transient receptor potential channel 4 (Mus musculus, UniProt Q9QUQ5); test: block of DAMGO-driven TRPC4 calcium entry – cell-based, HEK293 TRPC4/mu-opioid, Fluo-4 calcium, dose response (AID 434942); assay type: functional;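 further: potency of inhibitors blocking the TRPC4 calcium response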
T5 sequence (Q9QUQ5 whole entry): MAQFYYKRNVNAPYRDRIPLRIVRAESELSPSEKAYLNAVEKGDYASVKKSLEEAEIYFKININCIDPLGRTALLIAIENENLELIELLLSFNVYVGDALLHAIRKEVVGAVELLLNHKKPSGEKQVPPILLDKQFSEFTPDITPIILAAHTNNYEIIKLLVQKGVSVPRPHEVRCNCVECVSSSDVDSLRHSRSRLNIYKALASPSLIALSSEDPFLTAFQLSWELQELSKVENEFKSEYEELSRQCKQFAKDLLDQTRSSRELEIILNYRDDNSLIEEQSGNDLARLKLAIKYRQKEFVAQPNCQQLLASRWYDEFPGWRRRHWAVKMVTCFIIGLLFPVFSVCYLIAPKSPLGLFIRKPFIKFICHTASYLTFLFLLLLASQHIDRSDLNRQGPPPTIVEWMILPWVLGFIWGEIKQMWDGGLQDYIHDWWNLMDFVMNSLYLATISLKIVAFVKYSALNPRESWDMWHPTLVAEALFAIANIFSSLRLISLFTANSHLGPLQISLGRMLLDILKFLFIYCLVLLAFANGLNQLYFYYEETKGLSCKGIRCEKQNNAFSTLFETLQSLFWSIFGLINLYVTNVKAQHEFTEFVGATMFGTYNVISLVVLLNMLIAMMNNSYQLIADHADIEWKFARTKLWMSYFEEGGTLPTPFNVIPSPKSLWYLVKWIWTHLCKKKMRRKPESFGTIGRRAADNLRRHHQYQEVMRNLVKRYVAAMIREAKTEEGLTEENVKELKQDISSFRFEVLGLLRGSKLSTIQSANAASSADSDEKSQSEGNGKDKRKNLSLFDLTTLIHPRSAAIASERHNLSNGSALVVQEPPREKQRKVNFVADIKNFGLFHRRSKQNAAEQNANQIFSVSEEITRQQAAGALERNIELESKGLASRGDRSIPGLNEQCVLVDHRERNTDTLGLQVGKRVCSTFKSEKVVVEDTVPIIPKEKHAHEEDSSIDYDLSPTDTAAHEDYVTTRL

Troponin, cardiac muscle = Troponin, cardiac muscle (Homo sapiens, UniProt P19429+P45379+P63316); test: Fluorescence-based biochemical high throughput dose response assay for activators of the calcium sensitivity of cardiac Regulated Thin Filaments (RTF). [Related pubchem assays (depositor defined):AID493008, AID493018, AID504382, AID504383]; assay type: protein-complex assay
SUMO E1/E2 = SUMO E1/E2 (Homo sapiens, UniProt P63279+Q9UBE0+Q9UBT2); test: SAR analysis of SUMOylation using HTRF in an in-Vitro dose response assay. [Related pubchem assays (depositor defined):AID2006, AID2011, AID2018, AID2069, AID2658]; assay type: functional
[13] = molecular target: T6, Voltage-gated N-type calcium channel alpha-1B subunit/Amyloid beta A4 precursor protein-binding family A member 1 (Homo sapiens, UniProt Q00975+Q02410); test: disruptors of Mint-PDZ/N-type channel peptide interaction – biochemical, HTRF, set 2, SAR follow-up (AID 434980); assay type: functional
[14] = molecular target: T6, Voltage-gated N-type calcium channel alpha-1B subunit/Amyloid beta A4 precursor protein-binding family A member 1; test: disruptors of Mint-PDZ/N-type channel peptide interaction – biochemical, HTRF, SAR follow-up (AID 2489); assay type: functional
[15] = molecular target: T7, Sphingosine 1-phosphate receptor 4 (Homo sapiens, UniProt O95977); test: Late-stage fluorescence dose response cell-based assay to identify agonists of the Sphingosine 1-Phosphate Receptor 4 (S1P4): purchased compounds EC50. [Related pubchem assays (depositor defined):AID1509, AID1523, AID1563, AID1686, AID1701, AID1801]; assay type: functional
T7 sequence (O95977 whole entry): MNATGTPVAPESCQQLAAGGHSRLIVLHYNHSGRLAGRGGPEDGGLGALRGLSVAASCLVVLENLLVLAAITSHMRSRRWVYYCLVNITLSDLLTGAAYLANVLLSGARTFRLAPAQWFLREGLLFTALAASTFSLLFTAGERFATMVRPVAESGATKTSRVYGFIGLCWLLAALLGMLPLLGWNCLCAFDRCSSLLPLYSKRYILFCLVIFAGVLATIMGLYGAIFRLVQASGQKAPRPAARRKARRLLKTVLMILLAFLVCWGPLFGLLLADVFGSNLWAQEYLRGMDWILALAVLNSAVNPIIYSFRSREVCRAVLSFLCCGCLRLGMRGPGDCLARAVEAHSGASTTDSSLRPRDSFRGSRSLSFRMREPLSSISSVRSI

In the case of COC(=O)C1=C(C)N(Cc2ccccc2)C(NCCc2cccnc2)=N[C@H]1c1ccccc1, the IC50 [1] is reported as 1.08 µM (active), the IC50 [2] is reported as 2.69 µM (active) and the IC50 [3] is reported as 4.62 µM (active).
With CCC1(C)Cc2c(sc3[nH]c(=O)[nH]c(=O)c23)CS1 (stereo not given) the IC50 [4] was 38.5 µM (active), the IC50 [5] was 45.1 µM (active) and the IC50 (Genome polyprotein) was 88.7 µM (active).
For CCOC(=O)c1sc2nc(C3CC3)cc(-c3ccc(F)cc3)c2c1N, the AC50 (CAAX prenyl protease 1) was 3.7 µM (active).
For Cc1cc(NC(=O)Cn2c(=O)n(Cc3ccccc3)c(=O)c3ccccc32)no1, the IC50 (SUMO-activating enzyme) was 67.7 µM (active) and the EC50 [6] was 35.9 µM (active).
For O=C(Cc1cnn(-c2ccccc2)c1)c1ccc(O)c(O)c1O, the EC50 [7] was > 150 µM (inactive), the IC50 (Bcl-2-like protein 10) was 39.5 µM (active) and the EC50 [8] was > 38 µM (not active). For the same compound, the IC50 (Estrogen receptor beta) was 34.5 µM (not active), the IC50 [9] was 4.69 µM (active) and the IC50 [10] was > 100 µM (inactive). The IC50 (Genome polyprotein) was 75.7 µM (active).
For O=C(Nc1cc(N2CCOCC2)ncn1)NC1(C(F)(F)F)Oc2ccc(Cl)cc2O1 (stereo not given), the IC50 (Leucine aminopeptidase) was 32.4 µM (active), the IC50 [9] was 18.1 µM (active) and the AC50 [11] was 7.43 µM (active). For the same compound, the IC50 [10] was 10.4 µM (active).
With COc1cc2ccccc2c2c1CCCC2=O the EC50 [12] was 2.99 µM (active).
With CC1=CC(=C(C#N)c2nc3ccccc3s2)C=C(C)N1c1ccc(F)cc1 the EC50 (Troponin, cardiac muscle) was > 7.94 µM (active).
With COc1ccc(/C=C2\SC(=S)N(CCCC(=O)Nc3ccccc3C(=O)O)C2=O)cc1OC the EC50 (Troponin, cardiac muscle) was 12.9 µM (inactive).
In the case of COc1ccccc1C(=O)NC(=O)COC(=O)c1cc(-c2ccco2)nc2ccccc12, the IC50 (SUMO E1/E2) is reported as 2.06 µM (active), the IC50 [13] is reported as 3.41 µM (active) and the IC50 [14] is reported as 15.4 µM (active).
With Cc1ccc(CNC(=O)C(C)OC(=O)c2c(C)nn(Cc3ccc(C)cc3)c2Cl)cc1 (stereo not given) the EC50 [15] was > 50 µM (inactive).
With CCNC(=O)NC(=O)C(C)OC(=O)c1cc2c(C)nn(Cc3ccccc3)c2s1 (stereo not given) the EC50 [15] was > 50 µM (inactive).
For Cc1ccc(-n2c(C)cc(/C=N/NC(=O)Cn3c4ccccc4c(=O)c4ccccc43)c2C)cc1, the IC50 [4] was 2.37 µM (active) and the IC50 [5] was 13 µM (active).
